Data on two compounds can be found in patent US9593305B2, “Differentiation of pluripotent stem cells” (Janssen Biotech, Inc., priority 2008, dated 2017).

What all share (format): cell-based
Assay [1] concerns H1 human embryonic stem cells. Description: Step-wise differentiation, high content analysis of SOX17, cell number, insulin, glucagon (Example 16). As to conditions: GDF-8 with compound in step 1, relative to activin A and Wnt3a. The method, then:
(§1) The assay was initiated by aspirating the culture medium from each well and adding back an aliquot (0.5 ml) of test medium. Test conditions for the first step of differentiation were conducted over a three-day period, feeding daily by aspirating and replacing the medium from each well with fresh test medium. On the first day of assay, 100 ng/ml activin A (PeproTech; Cat #120-14) or 100 ng/ml GDF-8 (R&D Systems, Cat #788-G8) was added to respective assay wells where each growth factor was diluted into RPMI-1640 medium (Invitrogen; Cat #: 22400) with 2% Albumin Bovine Fraction V, Fatty Acid Free (FAF BSA) (Proliant Inc. Cat #: SKU 68700), and 20 ng/ml Wnt3a (R&D Systems; Cat #1324-WN/CF). On the second day of assay, 100 ng/ml activin A or 100 ng/ml GDF-8 was diluted into RPMI-1640 medium supplemented with 2% FAF BSA without Wnt3a. In some test samples using GDF-8, Wnt3a was replaced with a small molecule compound, added only on the first day of definitive endoderm differentiation. These small molecules included Compound 19 (2.5 μM in assay), Compound 202 (2.5 μM in assay), Compound 40 (2.5 μM in assay), or a commercially available GSK3 inhibitor BIO (0.5 μM in assay) (EMD Chemicals, Inc.; Cat #361550). At the conclusion of the first step of differentiation, cells from some wells were harvested for flow cytometry analysis to evaluate levels of CXCR4, a marker of definitive endoderm formation. Additional wells were harvested for RT-PCR analysis to measure other markers of differentiation.
Step 5 of the differentiation protocol was carried out over seven days in DMEM-high glucose with 0.1% Albumax, 0.5× Insulin-Transferrin-Selenium, and 1 μM Alk 5 inhibitor. […]
Imaging was performed using an IN Cell Analyzer 1000 (GE Healthcare) utilizing the 51008bs dichroic for cells stained with Hoechst 33342 and Alexa Fluor 488. […] Segmentation for the nuclei was determined based on gray-scale levels (baseline range 100-300) and nuclear size. Averages and standard deviations were calculated for each replicate data set. […]

Assay [2] concerns H1 human embryonic stem cells. Description: Step-wise differentiation, FACS for CXCR4 after step 1 (Example 16). As to conditions: 100 ng/ml GDF-8 with compound on first day, compared to activin A and Wnt3a. Here is the method: as §1
Cells for FACS analysis were blocked in a 1:5 solution of 0.5% human gamma-globulin (Sigma; Cat#G-4386) in PBS (Invitrogen; Cat #14040-133): BD FACS staining buffer—BSA (BD; Cat #554657) for 15 minutes at 4° C. Cells were then stained with antibodies for CD9 PE (BD; Cat #555372), CD99 PE (Caltag; #MHCD9904) and CXCR4 APC(R&D Systems; Cat#FAB 173A) for 30 minutes at 4° C. After a series of washes in BD FACS staining buffer, the cells were stained for viability with 7-AAD (BD; Cat #559925) and run on a BD FACSArray. […]

Assay [3] deals with H1 human embryonic stem cells. As to the kind of experiment: Secondary assay: compound combined with individual growth factors or small molecules, no activin A (Example 5, Table 4). Particulars: agent combined with 2.5 μM compound and Wnt3a, no activin A. Here is the method: Clusters of H1 human embryonic stem cells were grown on reduced growth factor […]™ (Invitrogen; Cat #356231)-coated tissue culture plastic. Cells were passaged using collagenase (Invitrogen; Cat #Cat #17104-019) treatment and gentle scraping, washed to remove residual enzyme, and plated with even dispersal at a ratio of 1:1 (surface area) on reduced growth factor […]™-coated 96-well black plates (Packard ViewPlates; PerkinElmer; Cat #6005182) using volumes of 100 μl/well. Cells were allowed to attach as clusters and then recover log phase growth over a 1 to 3 day period, feeding daily with MEF conditioned medium supplemented with 8 ng/ml bFGF (R&D Systems; Cat #233-FB). Plates were maintained at 37° C., 5% CO2 in a humidified box throughout the duration of assay.
Other agents tested were purchased as follows: BMP-7 (Sigma; Cat #B1434), LY294002 (Cayman; Cat 70920), PD98059, U0126, U0124 (EMD Biosciences; Cat #453710), muscimol (Tocris; Cat #0289), biuculline (Tocris; Cat #0130), sodium butyrate (Sigma; Cat #B5887). All growth factors were solubilized in PBS with 0.1% BSA (Sigma; Cat #A7888) and stored frozen at −80° C. Small molecules were solubilized in 100% DMSO (Sigma; Cat #D2650) and stored frozen at −80° C. The compounds were available as 5 mM stocks in 96-well plate format, solubilized in 100% DMSO and stored at −80° C. The compounds of the present invention were further diluted to an intermediate concentration of 0.2 mM in 50 mM HEPES (Invitrogen; Cat #15630-080), 20% DMSO and stored at 4° C. All growth factors and inhibitors were prepared in a deep well, 96-well polypropylene plate, diluted to 5× intermediate stocks in DMEM:F12 base medium at the beginning of assay and stored at 4° C.
A secondary screening assay was conducted, testing in triplicate and feeding on alternate days over the four-day assay timeframe. Assays were initiated by aspirating culture medium from each well followed by three washes in PBS to remove residual growth factors and serum. Test volumes of 80 μl per well were added back containing DMEM:F12 base medium (Invitrogen; Cat #11330-032) supplemented with 0.625% FCS (HyClone; Cat #SH30070.03), 25 ng/ml Wnt3a (R&D Systems), and 3.125 μM compound plus 20 μl 5× stock of growth factor or small molecule to yield a final concentration of 0.5% FCS, 20 ng/ml Wnt3a, and 2.5 μM compound. […] Final assay concentrations of small molecules tested were as follows: muscimol (20 μM), PD98059 (1 μM), LY294002 (2.5 μM), 00124 (1 μM), U0126 (1 μM), sodium butyrate (0.5 mM). Positive control wells (100 μl/well) contained the same base medium supplemented with 0.5% FCS, 20 ng/ml Wnt3a and 100 ng/ml activin A. Negative control wells (100 μl/well) contained the same base medium with 0.5% FCS and 20 ng/ml Wnt3a, omitting activin A.
On day 3, wells were aspirated and fed with 80 μl DMEM:F12 base medium supplemented with 2.5% FCS (HyClone) and 3.125 μM cyclic aniline-pyridinotriazine compound plus 20 μl 5× stock of growth factors or small molecules per well to yield a final concentration of 2% FCS and 2.5 μM compound (omitting Wnt3a) and as denoted on day one for all remaining growth factors or small molecules. Positive control wells (100 μl/well) contained the same base medium supplemented with 2% FCS and 100 ng/ml activin A, omitting Wnt3a. Negative control wells (100 μl/well) contained the same base medium with 2% FCS, omitting both activin A and Wnt3a.
At the conclusion of four-days of culture, assay plates were washed twice with PBS, fixed with 4% paraformaldehyde (Alexis Biochemical; Cat #ALX-350-011) at room temperature for 20 minutes, then washed three times with PBS and permeabilized with 0.5% Triton X-100 (Sigma; Cat #T8760-2) for 20 minutes at room temperature. Cells were washed again three times with PBS and blocked with 4% chicken serum (Invitrogen; Cat #16110082) in PBS for 30 minutes at room temperature.

Assay [4] has as its system H1 human embryonic stem cells. As to the kind of experiment: Definitive endoderm formation with TGF superfamily members, SOX17 and cell number (Example 14). As to conditions: dose titration with Wnt3a, Compound 34, or both. Here is the method:
Clusters were centrifuged at low speed to collect a cell pellet and remove residual dispase. […] All human embryonic stem cell lines were maintained at passage numbers less than 50 and routinely evaluated for normal karyotype and absence of mycoplasma.
Cells were washed again three times with PBS and blocked with 4% chicken serum (Invitrogen; Cat #16110082) in PBS for 30 minutes at room temperature. […] Plates were washed once with PBS and left in 100 μl/well PBS for imaging.

In the case of `O=C1Nc2cc(Br)ccc2/C1=C1/Nc2ccccc2/C1=N\O` [GSK3 inhibitor BIO, reference compound], in assay [1], the “relative cell numbers recovered through differentiation step 5” value is recorded as “decrease in cell number”. The “percentage of CXCR4 positive cells after step 1” value in assay [2] is “equivalent or slightly higher percentage of CXCR4 positive cells”.

In the case of “BMP-4: member of the BMP family, R&D Systems”, in assay [3], the “effect on SOX17 expression” value was “inhibited or had negligible effects on SOX17 expression”. In assay [4], the “cell numbers at the conclusion of assay” value was “significant effect on cell numbers” and the “induction of SOX17 expression compared to the Wnt3a treatment alone” value is “weak or negligible”.
